Data published in publication PMC10467532, “Design, synthesis, and biological evaluation of thiazole/thiadiazole carboxamide scaffold-based derivatives as potential c-Met kinase inhibitors for cancer treatment” (Journal of Enzyme Inhibition and Medicinal Chemistry, 2023).

Experiments:
[1] = system: HT-29; assay: MTT antiproliferative assay, HT-29; conditions: Homo sapiens, HT-29, 48 h, read-out: IC50 HT-29
Experimental: (§1) MTT assay was used to determine the cytotoxic activity of target compounds against different cell lines. […] Then, the cells were treated with five doses of test compounds (pre-dissolved in DMSO), and 0.1% DMSO was used as a negative control. […] The results expressed as IC50 were the average of three determinations calculated by using the Bacus Laboratories Incorporated Slide Scanner (Bliss) software.

[2] = system: A549; assay: MTT antiproliferative assay, A549; conditions: Homo sapiens, A549, 48 h, read-out: IC50 A549
Experimental: as §1

[3] = system: MKN-45; assay: MTT antiproliferative assay, MKN-45; conditions: Homo sapiens, MKN-45, 48 h, read-out: IC50 MKN-45
Experimental: as §1

[4] = system: MDA-MB-231; assay: MTT antiproliferative assay, MDA-MB-231; conditions: Homo sapiens, MDA-MB-231, 48 h, read-out: IC50 MDA-MB-231
Experimental: as §1

[5] = target: T1, c-Met (Homo sapiens, UniProt P08581); assay: In vitro c-Met enzymatic assay (HTRF); format: biochemical; conditions: HTRF assay; mean ± SD, triplicate; read-out: IC50 against c-Met
T1 construct: purchased Invitrogen (Waltham, MA)
Experimental: Inhibition of target compounds on c-Met kinase activity was measured by using the homogeneous time-resolved fluorescence (HTRF) assay.
The tyrosine kinases inhibitory activities of target compounds were evaluated in 384-well microtiter plates using purified kinases purchased from Invitrogen (Waltham, MA) by homogeneous time-resolved fluorescence (HTRF) assay. The HTRF KinEASE TK kit was performed according to the instructions. After the kinases and test compounds were incubated at 25–30 °C for 5 min, the kinase reactions were initiated by addition of 39 μL of kinase reaction buffer solution and incubated at 25–30 °C for 30 min. The reactions were quenched by addition 10 µL mixed detection solution. […] The inhibition rate (%) was calculated using the following equation: inhibition rate = [(activity of enzyme with tested compound – min)/(max – min)] × 100 (max: the enzyme activity in the presence of enzyme, substrates and cofactors; min: the enzyme activity in the presence of substrates, cofactors and in the absence of enzyme). IC50 value was calculated from the inhibition curve using GraphPad Prism 5.0 software (La Jolla, CA).

[6] = system: FHC; assay: MTT cytotoxicity assay, normal FHC cells; conditions: Homo sapiens, 48 h, read-out: IC50 FHC
Experimental: as §1

[7] = system: HUVEC; assay: MTT cytotoxicity assay, normal HUVEC cells; conditions: Homo sapiens, 48 h, read-out: IC50 HUVEC
Experimental: as §1

T1 sequence (P08581 25-1390): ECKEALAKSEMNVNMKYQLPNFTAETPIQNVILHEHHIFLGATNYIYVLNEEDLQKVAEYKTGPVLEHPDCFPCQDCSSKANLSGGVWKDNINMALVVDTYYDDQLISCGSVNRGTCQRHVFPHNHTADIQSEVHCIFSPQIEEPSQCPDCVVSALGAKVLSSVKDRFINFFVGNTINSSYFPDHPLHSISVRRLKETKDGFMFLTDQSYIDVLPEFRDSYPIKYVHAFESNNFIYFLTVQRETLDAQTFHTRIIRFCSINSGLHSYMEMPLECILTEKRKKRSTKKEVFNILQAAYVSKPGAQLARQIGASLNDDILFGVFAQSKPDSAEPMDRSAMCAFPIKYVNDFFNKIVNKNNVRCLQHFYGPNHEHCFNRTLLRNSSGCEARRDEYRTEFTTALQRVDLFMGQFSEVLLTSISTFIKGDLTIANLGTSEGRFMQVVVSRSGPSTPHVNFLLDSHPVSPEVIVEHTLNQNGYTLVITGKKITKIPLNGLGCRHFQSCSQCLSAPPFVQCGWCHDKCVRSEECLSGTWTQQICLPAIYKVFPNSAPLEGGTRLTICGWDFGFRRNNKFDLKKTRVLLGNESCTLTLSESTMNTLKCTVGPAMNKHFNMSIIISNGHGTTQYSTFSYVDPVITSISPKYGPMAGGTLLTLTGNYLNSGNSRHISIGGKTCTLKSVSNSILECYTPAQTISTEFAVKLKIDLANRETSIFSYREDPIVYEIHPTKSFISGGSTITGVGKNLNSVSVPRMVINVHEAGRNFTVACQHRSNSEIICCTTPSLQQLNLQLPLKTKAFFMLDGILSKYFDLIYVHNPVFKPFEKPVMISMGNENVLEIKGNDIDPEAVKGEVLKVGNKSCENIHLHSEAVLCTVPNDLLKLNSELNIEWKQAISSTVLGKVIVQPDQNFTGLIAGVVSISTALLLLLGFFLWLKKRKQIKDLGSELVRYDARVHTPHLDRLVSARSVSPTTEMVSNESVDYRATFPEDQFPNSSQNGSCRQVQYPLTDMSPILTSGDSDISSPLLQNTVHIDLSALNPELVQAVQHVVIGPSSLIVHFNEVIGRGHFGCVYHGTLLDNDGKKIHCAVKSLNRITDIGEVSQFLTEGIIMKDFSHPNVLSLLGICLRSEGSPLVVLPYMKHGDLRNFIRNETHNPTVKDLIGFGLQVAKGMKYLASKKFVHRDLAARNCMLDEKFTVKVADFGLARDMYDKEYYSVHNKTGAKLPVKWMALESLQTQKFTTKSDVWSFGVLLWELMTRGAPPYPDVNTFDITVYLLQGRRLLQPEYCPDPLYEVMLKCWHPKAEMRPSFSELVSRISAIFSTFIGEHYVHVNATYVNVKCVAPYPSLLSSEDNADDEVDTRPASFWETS

| SMILES | IC50 [1] [µM] | IC50 [2] [µM] | IC50 [3] [µM] | IC50 [4] [µM] | IC50 [5] [µM] | melting point [°C] | IC50 [6] [µM] | IC50 [7] [µM] |
| --- | --- | --- | --- | --- | --- | --- | --- | --- |
| COc1ccc(-c2csc(C(=O)Nc3ccc(Oc4ccnc(Cl)c4)c(F)c3)n2)cc1OC [Compound 51z, N-(4-((2-Chloropyridin-4-yl)oxy)-3-fluorophenyl)-4-(3,4-dimethoxyphenyl)thiazole-2-carboxamide] | 15.6 ± 2.51 | 11.3 ± 1.96 | 4.05 ± 1.12 | 20.5 ± 3.14 | 0.0455 ± 0.00628 | 120 to 122 | > 100 | 26.5 ± 3.84 |
| COc1cc2nccc(Oc3ccc(NC(=O)c4nc(-c5ccc(F)cc5)ns4)cc3)c2cc1OC [Compound 51b, N-(4-((6,7-Dimethoxyquinolin-4-yl)oxy)phenyl)-3-(4-fluorophenyl)-1,2,4-thiadiazole-5-carboxamide] | 26.5 ± 1.42 | 22.5 ± 3.15 | 7.89 ± 1.35 | 38.6 ± 4.07 | 0.0501 ± 0.00514 | 113 to 115 | > 100 | > 100 |
| O=C(Nc1ccc(Oc2ncnc3sccc23)c(F)c1)c1nc(-c2ccc(F)cc2)cs1 [Compound 51v, N-(3-Fluoro-4-(thieno[2,3-d]pyrimidin-4-yloxy)phenyl)-4-(4-fluorophenyl)thiazole-2-carboxamide] | 19.2 ± 2.85 | 12.6 ± 1.83 | 4.23 ± 0.94 | 29.1 ± 2.52 | 0.0376 ± 0.00288 | 154 to 156 | 63.3 ± 3.35 | 54.4 ± 4.16 |
| O=C(Nc1ccc(Oc2ccnc3ccsc23)c(F)c1)c1nc(-c2ccc(F)cc2)cs1 [Compound 51r, N-(3-Fluoro-4-(thieno[3,2-b]pyridin-7-yloxy)phenyl)-4-(4-fluorophenyl)thiazole-2-carboxamide] | 18.3 ± 3.62 | 10.5 ± 1.76 | 5.02 ± 0.77 | 28.9 ± 3.13 | 0.0353 ± 0.00519 | 223 to 225 | 51.2 ± 4.61 | 40.6 ± 2.25 |
| O=C(Nc1ccc(Oc2ccnc(Cl)c2)c(F)c1)c1nc(-c2cccc(F)c2)cs1 [Compound 51ab, N-(4-((2-Chloropyridin-4-yl)oxy)-3-fluorophenyl)-4-(3-fluorophenyl)thiazole-2-carboxamide] | 6.95 ± 0.82 | 6.02 ± 0.87 | 1.49 ± 0.63 | 10.1 ± 1.88 | 0.0232 ± 0.00216 | 189 to 191 | 20.2 ± 3.62 | 12.7 ± 0.83 |
| Cc1ccc(-c2csc(C(=O)Nc3ccc(Oc4ccnc(Cl)c4)c(F)c3)n2)cc1 [Compound 51x, N-(4-((2-Chloropyridin-4-yl)oxy)-3-fluorophenyl)-4-(4-methylphenyl)thiazole-2-carboxamide] | 14.3 ± 2.13 | 8.65 ± 1.72 | 3.46 ± 0.75 | 28.6 ± 1.85 | 0.0315 ± 0.00425 | 157 to 159 | 43.4 ± 3.68 | 30.8 ± 2.43 |
| COc1cc2nccc(Oc3ccc(NC(=O)c4nc(-c5ccccc5)ns4)cc3)c2cc1OC [Compound 51a, N-(4-((6,7-Dimethoxyquinolin-4-yl)oxy)phenyl)-3-phenyl-1,2,4-thiadiazole-5-carboxamide] | 24.4 ± 1.68 | 26.4 ± 1.24 | 9.25 ± 0.86 | > 50 | 0.0566 ± 0.00482 | 145 to 147 | > 100 | > 100 |
| COc1cc2ncnc(Oc3ccc(NC(=O)c4nc(-c5ccc(F)cc5)cs4)cc3F)c2cc1OC [Compound 51p, N-(4-((6,7-Dimethoxyquinazolin-4-yl)oxy)-3-fluorophenyl)-4-(4-fluorophenyl)thiazole-2-carboxamide] | 15.2 ± 2.26 | 9.83 ± 1.22 | 3.17 ± 0.84 | 28.1 ± 1.96 | 0.0247 ± 0.00195 | 188 to 190 | 46.4 ± 6.24 | 33.6 ± 2.68 |
| O=C(Nc1ccc(Oc2ccnc(Cl)c2)c(F)c1)c1nc(-c2ccccc2F)cs1 [Compound 51ac, N-(4-((2-Chloropyridin-4-yl)oxy)-3-fluorophenyl)-4-(2-fluorophenyl)thiazole-2-carboxamide] | 9.53 ± 0.75 | 7.54 ± 0.62 | 1.94 ± 0.26 | 18.1 ± 2.14 | 0.0185 ± 0.00305 | 168 to 170 | 31.3 ± 2.63 | 19.4 ± 0.83 |
| COc1cc2nccc(Oc3ccc(NC(=O)c4nc(-c5ccccc5)cs4)cc3)c2cc1OC [Compound 51e, N-(4-((6,7-Dimethoxyquinolin-4-yl)oxy)phenyl)-4-phenylthiazole-2-carboxamide] | 21.8 ± 1.66 | 16.6 ± 2.16 | 5.86 ± 0.93 | > 50 | 0.0345 ± 0.00465 | 63 to 65 | 64.5 ± 6.12 | 56.5 ± 4.81 |
| O=C(Nc1ccc(Oc2ccnc(Cl)c2)c(F)c1)c1nc(-c2ccc(Br)cc2)cs1 [Compound 51af, 4-(4-Bromophenyl)-N-(4-((2-chloropyridin-4-yl)oxy)-3-fluorophenyl)thiazole-2-carboxamide] | 11.7 ± 1.63 | 8.23 ± 1.42 | 2.06 ± 0.45 | 20.5 ± 3.65 | 0.0192 ± 0.00144 | 192 to 194 | 21.6 ± 2.82 | 11.5 ± 0.83 |
| O=C(Nc1ccc(Oc2ccnc(Cl)c2)c(F)c1)c1nc(-c2ccccc2)cs1 [Compound 51w, N-(4-((2-Chloropyridin-4-yl)oxy)-3-fluorophenyl)-4-phenylthiazole-2-carboxamide] | 12.5 ± 2.39 | 7.26 ± 1.37 | 2.53 ± 0.62 | 26.3 ± 3.09 | 0.0243 ± 0.00167 | 205 to 207 | 48.2 ± 5.04 | 38.6 ± 3.53 |
| O=C(Nc1ccc(Oc2ccnc(Cl)c2)c(F)c1)c1nc(-c2cccc(Cl)c2)cs1 [Compound 51ae, 4-(3-Chlorophenyl)-N-(4-((2-chloropyridin-4-yl)oxy)-3-fluorophenyl)thiazole-2-carboxamide] | 9.62 ± 1.56 | 7.08 ± 0.95 | 1.95 ± 0.68 | 19.2 ± 2.35 | 0.0234 ± 0.00361 | 171 to 173 | 24.5 ± 1.84 | 13.1 ± 0.95 |
| O=C(Nc1ccc(Oc2ccnc3ccsc23)c(F)c1)c1nc(-c2ccccc2)cs1 [Compound 51q, N-(3-Fluoro-4-(thieno[3,2-b]pyridin-7-yloxy)phenyl)-4-phenylthiazole-2-carboxamide] | 19.4 ± 2.48 | 12.9 ± 1.82 | 5.95 ± 0.63 | 32.5 ± 2.68 | 0.0385 ± 0.00423 | 251 to 253 | 80.6 ± 4.52 | 69.5 ± 2.68 |
| COc1cc2nccc(Oc3ccc(NC(=O)c4nc(-c5ccccc5)cs4)c(C)c3)c2cc1OC [Compound 51m, N-(4-((6,7-Dimethoxyquinolin-4-yl)oxy)-2-methylphenyl)-4-phenylthiazole-2-carboxamide] | 22.3 ± 1.75 | 14.1 ± 1.87 | 6.43 ± 0.76 | 35.2 ± 4.23 | 0.0398 ± 0.00547 | 209 to 211 | 49.6 ± 5.04 | 38.8 ± 3.55 |
| COc1cc2nccc(Oc3ccc(NC(=O)c4nnc(-c5ccccc5)s4)cc3)c2cc1OC [Compound 51c, N-(4-((6,7-Dimethoxyquinolin-4-yl)oxy)phenyl)-5-phenyl-1,3,4-thiadiazole-2-carboxamide] | 29.3 ± 3.85 | 20.6 ± 1.96 | 6.94 ± 1.06 | 34.7 ± 2.58 | 0.0457 ± 0.00388 | 141 to 143 | 71.3 ± 5.25 | 53.5 ± 4.62 |
| O=C(Nc1ccc(Oc2ccnc(Cl)c2)c(F)c1)c1nc(-c2ccc(F)c(Cl)c2)cs1 [Compound 51ak, 4-(3-Chloro-4-fluorophenyl)-N-(4-((2-chloropyridin-4-yl)oxy)-3-fluorophenyl)thiazole-2-carboxamide] | 1.56 ± 0.32 | 1.81 ± 0.34 | 0.22 ± 0.04 | 4.24 ± 0.68 | 0.00389 ± 0.00052 | 168 to 170 | 13.2 ± 0.84 | 8.52 ± 1.35 |
| O=C(Nc1ccc(Oc2ncnc3ccsc23)c(F)c1)c1nc(-c2ccc(F)cc2)cs1 [Compound 51t, N-(3-Fluoro-4-(thieno[3,2-d]pyrimidin-4-yloxy)phenyl)-4-(4-fluorophenyl)thiazole-2-carboxamide] | 23.1 ± 3.34 | 14.5 ± 2.87 | 5.45 ± 0.65 | 36.6 ± 2.83 | 0.0404 ± 0.00366 | 146 to 148 | 67.4 ± 4.38 | 41.4 ± 2.39 |
| O=C(Nc1ccc(Oc2ccnc(Cl)c2)c(F)c1)c1nc(-c2ccc(F)c(F)c2)cs1 [Compound 51al, N-(4-((2-Chloropyridin-4-yl)oxy)-3-fluorophenyl)-4-(3,4-difluorophenyl)thiazole-2-carboxamide] | 1.94 ± 0.65 | 2.26 ± 0.68 | 0.35 ± 0.07 | 5.82 ± 0.73 | 0.00523 ± 0.00074 | 170 to 172 | 10.2 ± 1.65 | 6.14 ± 0.75 |
